Laboratory results as given in patent US20230031406A1, “COMPOUNDS AND COMPOSITIONS FOR TREATING CONDITIONS ASSOCIATED WITH NLRP ACTIVITY” (Novartis AG, priority 2018, published 2023).
pIC50: −log10 of the molar value. Read-outs that look alike come from different tables or passages of the source. Blank lines part the entries; values can stand above or below the compound they belong to.

System: PMA-differentiated THP-1 cells
Assay: IL-1β production in PMA-differentiated THP-1 cells stimulated with gramicidin (hTHP-1 assay containing 2% fetal bovine serum; Procedures 1 and 2)
Assay type: cell-based, human
Settings: 2% fetal bovine serum
Summary of the method: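 Compound titrations in 0.37% final DMSO were added to THP-1 cells that had been plated after 16-18 h PMA treatment, 50,000 per well in 2% FBS. One hour later the cells received gramicidin (5 μM, 2 h) and were centrifuged. HTRF detected IL-1β in the collected supernatants.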

[1] = Homo sapiens, THP-1, Table B1, class symbols, read-out: Average IC50 of compounds in hTHP-1 assay: hTHP-1 IC50
[2] = Homo sapiens, THP-1, Table B2, class symbols, read-out: hTHP-1 IC50
[3] = Table B1, class symbols, read-out: Average IC50 of compounds in hTHP-1 assay: hTHP-1 IC50
[4] = Homo sapiens, THP-1, Table B4, class symbols, read-out: hTHP-1 IC50
[5] = Homo sapiens, THP-1, Table B3, hTHP-1 assay, class symbols, read-out: IC50
[6] = Table B2, class symbols, read-out: hTHP-1 IC50

pIC50 [2]: 5.30 to 6.00
Compound: CC1CCc2c1nc1c(c2NC(=O)N=S(N)(=O)c2cc(C(C)(C)O)n(-c3ccccc3)n2)CCC1 (single isomer, unassigned) [Compound 664b, (R) or (S)-5-(2-Hydroxypropan-2-yl)-N′-((3-methyl-1,2,3,5,6,7-hexahydrodicyclopenta [b,e]pyridin-8-yl)carbamoyl)-1-phenyl-1H-pyrazole-3-sulfonimidamide]

pIC50 [2]: 6.00 to 6.70
Compound: Cc1c(C(F)(F)F)nc2c(c1NC(=O)N=S(N)(=O)c1ccn(C(C)C)n1)CCC2 (single isomer, unassigned) [Compound 628b, (R) or (S)-1-Isopropyl-N′-((3-methyl-2-(trifluoromethyl)-6,7-dihydro-5H-cyclopenta[b]pyridin-4-yl)carbamoyl)-1H-pyrazole-3-sulfonimidamide]

pIC50 [6]: 4.52 to 5.30
Compound: CCc1c(C2CC2)nc2c(c1NC(=O)N=S(N)(=O)c1cnc(C(C)(C)O)s1)CCC2 (single isomer, unassigned) [Compound 675b, (S) or (R)-N′-((2-cyclopropyl-3-ethyl-6,7-dihydro-5H-cyclopenta[b]pyridin-4-yl)carbamoyl)-2-(2-hydroxypropan-2-yl)thiazole-5-sulfonimidamide]

pIC50 [6]: 4.52 to 5.30
Compound: CC(C)(O)c1cc(S(N)(=O)=NC(=O)Nc2c3c(nc4c2CCC4(C)C)CCC3)nn1-c1ccc(F)cc1 (single isomer, unassigned) [Compound 705a, (S) or (R)-N′-((3,3-dimethyl-1,2,3,5,6,7-hexahydrodicyclopenta [b,e]pyridin-8-yl)carbamoyl)-1-(4-fluorophenyl)-5-(2-hydroxypropan-2-yl)-1H-pyrazole-3-sulfonimidamide]

pIC50 [6]: 6.70 to 7.40
Compound: CC(C)(O)c1csc(S(N)(=O)=NC(=O)Nc2c3c(nc(C4CC4)c2C2CC2)CCC3)c1 (single isomer, unassigned) [Compound 670b, (R) or (S)-N′-((2,3-dicyclopropyl-6,7-dihydro-5H-cyclopenta[b]pyridin-4-yl)carbamoyl)-4-(2-hydroxypropan-2-yl)thiophene-2-sulfonimidamide]

pIC50 [6]: 4.52 to 5.30
Compound: Cc1c(C2CC2)nc2c(c1NC(=O)N=S(N)(=O)c1nc(C(C)(C)O)cs1)CCC2 (single isomer, unassigned) [Compound 626a]

pIC50 (Table B3, hTHP-1 assay, class symbols, listed as Compound 984b, read-out: IC50): 6.70 to 7.40
Compound: NS(=O)(=NC(=O)Nc1c2c(nc(C(F)(F)F)c1C1CC1)CCC2)c1nn(C(F)F)cc1F (stereo not shown) [Compound 984b]

The remaining lines, values behind:

Compound: CCOC(=O)c1nc2c(c(NC(=O)N=S(=O)(N[Si](C)(C)C(C)(C)C)c3cnc(C(C)(C)O)s3)c1C)CCC2 (stereo not shown) [Example 613, Ethyl 4-(3-(((tert-butyldimethylsilyl)amino)(2-(2-hydroxypropan-2-yl)thiazol-5-yl)(oxo)-l6-sulfaneylidene)ureido)-3-methyl-6,7-dihydro-5H-cyclopenta[b]pyridine-2-carboxylate]
pIC50 (Homo sapiens, THP-1, Table B3, hTHP-1 assay, numeric values, read-out: IC50): < 4.52

Compound: CC(C)c1ncc(F)c(C(C)C)c1NC(=O)N=S(N)(=O)c1sc(C(C)(C)O)cc1F (stereo not shown) [Compound 106, 3-Fluoro-N′-((5-fluoro-2,4-diisopropylpyridin-3-yl)carbamoyl)-5-(2-hydroxypropan-2-yl)thiophene-2-sulfonimidamide]
pIC50 [1]: 6.70 to 7.40

Compound: CC(C)(O)c1ncc(S(N)(=O)=NC(=O)Nc2c3c(nc4c2CCC4)CCCC3)s1 (stereo not shown) [Compound 161, N′-((2,3,5,6,7,8-hexahydro-1H-cyclopenta[b]quinolin-9-yl)carbamoyl)-2-(2-hydroxypropan-2-yl)thiazole-5-sulfonimidamide]
pIC50 [1]: 5.30 to 6.00

Compound: CC(C)n1nc(S(N)(=O)=NC(=O)Nc2c3c(nc4c2CCC4(C)C)CCC3)cc1C(C)(C)O (stereo not shown) [Compound 615, N′-((3,3-dimethyl-1,2,3,5,6,7-hexahydrodicyclopenta[b,e]pyridin-8-yl)carbamoyl)-5-(2-hydroxypropan-2-yl)-1-isopropyl-1H-pyrazole-3-sulfonimidamide]
pIC50 [2]: 5.30 to 6.00

Compound: CC1CCc2c1nc1c(c2NC(=O)N=S(N)(=O)c2cc(C(C)(C)O)cs2)CCC1C (stereo not shown) [131f^]
pIC50 [3]: 5.30 to 6.00

Compound: NS(=O)(=NC(=O)Nc1c2c(nc3c1CCC31CC1)CCC2)c1ccn(CCO)n1 (single isomer, unassigned) [Example 647, (R) or (S)-1-(2-hydroxyethyl)-N′-((1′,5′,6′,7′-tetrahydro-2′H-spiro[cyclopropane-1,3′-dicyclopenta[b,e]pyridin]-8′-yl)carbamoyl)-1H-pyrazole-3-sulfonimidamide]
pIC50 (Table B3, hTHP-1 assay, class symbols, read-out: IC50): 6.00 to 6.70

Compound: CC1CCc2c1nc1c(c2NC(=O)N=S(N)(=O)c2sc(C(C)(C)O)nc2CO)CCC1 (single isomer, unassigned) [Compound 168a, (S,R/S) or (R,R/S)-4-(hydroxymethyl)-2-(2-hydroxypropan-2-yl)-N′-((3-methyl-1,2,3,5,6,7-hexahydro-dicyclopenta[b,e]pyridin-8-yl)carbamoyl)thiazole-5-sulfonimidamide]
pIC50 [3]: 4.52 to 5.30

Compound: CC(C)c1ncc(F)c(C(C)C)c1NC(=O)N=S(N)(=O)c1ncc(C(C)(C)O)s1 (stereo not shown) [Compound 165, N′-((5-fluoro-2,4-diisopropylpyridin-3-yl)carbamoyl)-5-(2-hydroxypropan-2-yl)thiazole-2-sulfonimidamide]
pIC50 [3]: 5.30 to 6.00

Compound: CC1(C)CCc2c1nc1c(c2NC(=O)N=S(N)(=O)c2cnc(C(O)CO)s2)CCC1 (stereo not shown) [Example 753, 2-(1,2-Dihydroxyethyl)-N′-((3,3-dimethyl-1,2,3,5,6,7-hexahydrodicyclopenta[b,e]pyridin-8-yl)carbamoyl) thiazole-5-sulfonimidamide]
pIC50 [4]: 6.00 to 6.70

Compound: CCn1cc(F)c(S(N)(=O)=NC(=O)Nc2c(-c3ccccc3)cnc3c2CCC3)n1 (stereo not shown) [Example 745, 1-Ethyl-4-fluoro-N′-((3-phenyl-6,7-dihydro-5H-cyclopenta[b]pyridin-4-yl)carbamoyl)-1H-pyrazole-3-sulfonimidamide]
pIC50 [4]: 5.30 to 6.00

Compound: CC(C)(O)c1csc(S(N)(=O)=NC(=O)Nc2c3c(nc(C4CC4)c2C2CC2)CCC3)c1 (stereo not shown) [Compound 670, N′-((2,3-dicyclopropyl-6,7-dihydro-5H-cyclopenta[b]pyridin-4-yl)carbamoyl)-4-(2-hydroxypropan-2-yl)thiophene-2-sulfonimidamide]
pIC50 [2]: 6.00 to 6.70

Compound: CCn1cc(F)c(S(N)(=O)=NC(=O)Nc2c3c(nc4c2CCC4(C)C)CCC3)n1 (stereo not shown) [Example 638, N′-((3,3-dimethyl-1,2,3,5,6,7-hexahydrodicyclopenta[b,e]pyridin-8-yl)carbamoyl)-1-ethyl-4-fluoro-1H-pyrazole-3-sulfonimidamide]
pIC50 [5]: 7.40 to 8.10

Compound: CC(C)(O)c1cnc(S(N)(=O)=NC(=O)Nc2c3c(nc4c2CCC4(C)C)CCC3)s1 (stereo not shown) [Compound 686, N′-((3,3-dimethyl-1,2,3,5,6,7-hexahydrodicyclopenta[b,e]pyridin-8-yl)carbamoyl)-5-(2-hydroxypropan-2-yl)thiazole-2-sulfonimidamide]
pIC50 [2]: 6.00 to 6.70

Compound: CC(C)c1cnc(F)c(C(C)C)c1NC(=O)N=S(N)(=O)c1cnc(C(C)(C)O)s1 (single isomer, unassigned) [Compound 115a, (S) or (R)-N′-((2-fluoro-3,5-diisopropylpyridin-4-yl)carbamoyl)-2-(2-hydroxypropan-2-yl)thiazole-5-sulfonimidamide]
pIC50 [6]: 4.52 to 5.30

Compound: CC1CCc2c1nc1c(c2NC(=O)N=S(N)(=O)c2sc(C(C)(C)O)cc2F)CCC1 (stereo not shown) [Compound 103, 3-fluoro-5-(2-hydroxypropan-2-yl)-N′-((3-methyl-1,2,3,5,6,7-hexahydrodicyclopenta[b,e]pyridin-8-yl)carbamoyl)thiophene-2-sulfonimidamide]
pIC50 [3]: 6.70 to 7.40

Compound: CCn1ncc(F)c1S(N)(=O)=NC(=O)Nc1c(C)c(C(F)(F)F)nc2c1CCC2 (stereo not shown) [compound 754, 1-Ethyl-4-fluoro-N′-((3-methyl-2-(trifluoromethyl)-6,7-dihydro-5H-cyclopenta[b]pyridin-4-yl)carbamoyl)-1H-pyrazole-5-sulfonimidamide]
pIC50 [4]: 5.30 to 6.00

Compound: CC(C)(O)c1nc(CO)c(S(N)(=O)=NC(=O)Nc2c3c(nc4c2CCC4)CCC3)s1 (stereo not shown) [Compound 150, N′-((1,2,3,5,6,7-hexahydrodicyclopenta[b,e]pyridin-8-yl)carbamoyl)-4-(hydroxymethyl)-2-(2-hydroxypropan-2-yl)thiazole-3-sulfonimidamide]
pIC50 [1]: 5.30 to 6.00

Compound: CC(O)c1csc([S@@](N)(=O)=NC(=O)Nc2c3c(nc4c2CC[C@H]4C)CCC3)c1 (stereo partly drawn) [compound 583, (S)-4-(1-hydroxyethyl)-N′-(((R)-3-methyl-1,2,3,5,6,7-hexahydrodicyclopenta[b,e]pyridin-8-yl)carbamoyl)thiophene-2-sulfonimidamide]
pIC50 [5]: 5.30 to 6.00

Compound: CC(C)(O)c1ccc(S(N)(=O)=NC(=O)Nc2c3c(nc4c2CCC4(C)C)CCC3)cn1 (stereo not shown) [Compound 673, N′-((3,3-dimethyl-1,2,3,5,6,7-hexahydrodicyclopenta[b,e]pyridin-8-yl)carbamoyl)-6-(2-hydroxypropan-2-yl)pyridine-3-sulfonimidamide]
pIC50 [2]: 4.52 to 5.30

Compound: NS(=O)(=NC(=O)Nc1c2c(nc(C3CC3)c1C1CC1)CCC2)c1nn(C(F)F)cc1F (stereo not shown) [Example 737, N′-((2,3-dicyclopropyl-6,7-dihydro-5H-cyclopenta[b]pyridin-4-yl)carbamoyl)-1-(difluoromethyl)-4-fluoro-1H-pyrazole-3-sulfonimidamide]
pIC50 [4]: 6.00 to 6.70

Compound: CCCc1cc(NC(=O)N=S(N)(=O)c2cnc(C(C)(C)O)s2)c2c(n1)CCC2 (stereo not shown) [Compound 112, 2-(2-hydroxypropan-2-yl)-N′-((2-propyl-6,7-dihydro-5H-cyclopenta[b]pyridin-4-yl)carbamoyl)thiazole-5-sulfonimidamide]
pIC50 (Homo sapiens, THP-1, Table B1, numeric bounds, read-out: Average IC50 of compounds in hTHP-1 assay: hTHP-1 IC50): < 4.52
